Earlier results on two compounds are cited in US4996197A, “Pharmaceutical and/or cosmetic composition for local use containing Rhamsan gum” (Laboratoires Merck Sharp & Dohme-Chibret, priority 1987, dated 1991).

For this series the following is noted: with polyvinyl alcohol; Maichuk, Am. J. Ophthal, 74: 694, 1972.

For the compound `Nc1ccc(S(=O)(=O)[N-]c2cccnn2)cc1.[Na+]` [sulphapyridazine sodium], the “pharmacological response to medicinal products” value is on record as “enhances the pharmacological response”. For the compound erythrocin propionate, the “pharmacological response to medicinal products” value is “enhances the pharmacological response”.
